Test results: patent publication USRE37556E1, “Superoxide radical inhibitor” (Otsuka Pharmaceutical Co., Ltd., priority 1990, dated 2002)

Tested on: human neutrophilic leukocytes
Test: Inhibition of superoxide radical (O2-) generation in FMLP-stimulated human neutrophilic leukocytes (ferricytochrome C method)
Type: cell-based
Settings: Homo sapiens, Leukocyte, Table 16; comparative test present compounds vs prior art compounds; NE = not effective
From the text: (1) Activity for inhibiting the generation of superoxide radical (O2^−) in human neutrophilic leukocytes
That is, a whole blood obtained from a healthy adult and treated by anticoagulation method was subjected to a dextranhypotonic treatment to obtain leukocyte cells. The leukocyte cells were then subjected to a density gradient ultracentrifugation by Ficoll-Paque to obtain a neutrophilic leukocyte fraction.
O2^− generation was examined by the ferricytochrome C method in accordance with the method of B. N. Cronstein et al. [Journal of Experimental Medicine, vol. […] Each test compound was dissolved in dimethyl sulfoxide (DMSO); the solution was added to neutrophilic leukocytes before the addition of FMLP; then, the neutrophilic leukocytes were pre-incubated at 37° C.

Structure (SMILES) | IC50 [nM]
CCOc1cc(-c2nc(-c3ccc(O)c(C(=O)O)c3)cs2)ccc1OC [compound 92, 4-(3-Carboxy-4-hydroxyphenyl)-2-(3-ethoxy-4-methoxyphenyl)thiazole] | 20

Same assay, conditions: Homo sapiens, Leukocyte, pH 7.4, Table 15; O2- generation, 3x10^-7 M FMLP, cytochalasin B, 37° C., pH 7.4

Structure (SMILES) | IC50 [nM]
CCOC(=O)c1csc(-c2csc(-c3ccc(OCC)c(OCC)c3)n2)n1 [compound 131, 2-(3,4-Diethoxyphenyl)-4-(4-ethoxycarbonyl-2-thiazolyl)thiazole] | 190
CCOc1ccc(-c2nc(-c3cc4c(c(C(=O)O)c3)OC(C)(C)C4)cs2)cc1OCC [compound 139, 2-(3,4-Diethoxyphenyl)-4-(2,2-dimethyl-7-carboxy-2,3-dihydrobenzofuran-5-yl)thiazole] | 100
CCCc1cc(C(=O)O)cc(-c2csc(-c3ccc(OCC)c(OCC)c3)n2)c1O [compound 114, 4-(2-Hydroxy-3-propyl-5-carboxyphenyl)-2-(3,4-diethoxy-phenyl)thiazole] | 100

Continued, values first:

IC50 [nM] | Structure (SMILES)
35 | CCOc1ccc(-c2nc(-c3ccc(C(=O)O)nc3)cs2)cc1OCC [compound 144, 2-(3,4-Diethoxyphenyl)-4-(2-carboxy-5-pyridyl)-thiazole]
600 | CCOc1ccc(-c2nc(-c3ccc(Cl)cc3)cs2)cc1OCC [compound 75, 4-(4-Chlorophenyl)-2-(3,4-diethoxyphenyl)thiazole]

Same assay, conditions: Table 15; O2- generation, 3x10^-7 M FMLP, cytochalasin B, 37° C., pH 7.4

Structure (SMILES) | IC50 [nM]
CCCc1cc(-c2csc(-c3ccc(OCC)c(OCC)c3)n2)cc(C(=O)O)c1O [compound 90] | 8
CCOc1ccc(-c2nc(-c3ccc(O[C@@H]4O[C@H](COC(C)=O)[C@@H](OC(C)=O)[C@H](OC(C)=O)[C@H]4OC(C)=O)cc3)cs2)cc1OCC [compound 78, 2-(3,4-Diethoxyphenyl)-4-[4-(2,3,4,6-tetra-0-acetyl-β-D-glucopyranosyloxy)phenyl]thiazole] | 1000

Tested on: not given
Test: not given
Settings: not given

Structure (SMILES) | melting point
CCOC(=O)C=Cc1cc(-c2csc(-c3ccc(OCC)c(OCC)c3)n2)cc(C(=O)OCOC)c1OCOC [Example 512, 2-(3,4-diethoxyphenyl)-4-[3-methoxymethoxycarbonyl-4-methoxymethoxy-5-(2-ethoxycarbonylvinyl)phenyl]thiazole] | 94 to 96 °C
COc1ccc(C(=O)c2nc(-c3ccc4[nH]c(=O)c(O)c(O)c4c3)cs2)cc1OC [Example 152, 2-(3,4-dimethoxybenzoyl)-4-(3,4-dihydroxycarbostyril-6-yl) thiazole] | 249 to 251 °C
CCCc1cc(-c2csc(-c3ccc(OCC)c(OCC)c3)n2)cc(C(=O)O)c1O [Example 363, 2-(3,4-diethoxyphenyl)-4-(3-carboxy-4-hydroxy-5-propylphenyl)thiazole] | 179 to 180 °C
CCOc1ccc(-c2nc(-c3cccc(CN(C)C)n3)cs2)cc1OCC.Cl.Cl | 195 °C (dec.)
CCCCCCCCCOC(=O)c1cc(-c2csc(-c3ccc(OCC)c(OCC)c3)n2)ccc1O [Example 461, 2-(3,4-diethoxyphenyl)-4-(3-nonyloxycarbonyl-4-hydroxyphenyl)thiazole] | 67 to 68 °C
COc1ccc(-c2nc(-c3cc(N)cc(N)c3)cs2)cc1OC.Cl.Cl | 198 to 200 °C
CCOc1ccc(C(=O)c2csc(-c3ccc(OCC)c(OCC)c3)n2)cc1OCC [Example 246, 2-(3,4-diethoxyphenyl)-4-(3,4-diethoxybenzoyl)thiazole] | 128 to 129 °C
CCOc1ccc(-c2nc(-c3cc(C(=O)O)ccn3)cs2)cc1OCC [Example 516, 2(3,4-diethoxyphenyl)-4-(4-carboxy-2-pyridyl)thiazole] | 236.2 to 237.2 °C
CCOc1ccc(-c2nc(-c3ccc(OS(=O)(=O)C(F)(F)F)c(C(=O)OC)c3)cs2)cc1OCC [Example 457, 2-(3,4-diethoxyphenyl)-4-(3-methoxycarbonyl-4-trifluoromethanesulfonyloxyphenyl) thiazole] | 112 to 113 °C
[O-][n+]1cccc(-c2nc(-c3ccccc3)cs2)c1 [Example 139, 3-(4-phenylthiazol-2-yl) pyridine-N-oxide] | 140 to 141 °C
CCOc1ccc(-c2nc(-c3ccc(S)cc3C(=O)O)cs2)cc1OCC [Example 355, 2-(3,4-diethoxyphenyl)-4-(4-mercapto-2-carboxyphenyl)-thiazole] | 283 to 285 °C
C=CCc1cc(-c2csc(-c3ccc(OCC)c(OCC)c3)n2)cc(C(=O)OC)c1O [Example 353, 2-(3,4-diethoxyphenyl)-4-(3-methoxycarbonyl-4-hydroxy-5-allylphenyl)thiazole] | 118 to 119 °C
COc1ccc(C(O)c2nc(-c3ccc4[nH]c(=O)c(O)c(O)c4c3)cs2)cc1OC (centres unmarked) [Example 151, 2-[1-(3,4-dimethoxyphenyl)-1-hydroxymethyl]-4-(3,4-dihydroxycarbostyril-6-yl)thiazole] | 188 to 189 °C
CCOc1ccc(-c2nc(-c3ccc(N4CCOCC4)c([N+](=O)[O-])c3)cs2)cc1OCC [Example 242, 4-(4-morpholino-3-nitrophenyl)-2-(-3,4-diethoxyphenyl) thiazole] | 119 to 120 °C
CCOc1ccc(-c2nc(-c3ccc(O[C@@H]4O[C@H](CO)[C@@H](O)[C@H](O)[C@H]4O)cc3)cs2)cc1OCC [Example 237, 4-[4-(β-D-glucopyranosyloxy)-phenyl]-2-(3,4-diethoxyphenyl)thiazole] | 138 to 140 °C
CCOc1ccc(-c2nc(-c3ccc(OC(C)=O)c(C(=O)O)c3)cs2)cc1OCC [Example 364, 2-(3,4-diethoxyphenyl)-4-(3-carboxy-4-acetyloxyphenyl)thiazole] | 178 to 179 °C

Other lines, results leading:

melting point | Structure (SMILES)
284 to 286 °C | COc1cc(-c2nc(-c3ccc4c(c3)CCC(=O)N4)cs2)ccc1S(C)(=O)=O [Example 150, 2-(3-methoxy-4-methylsulfonylphenyl)-4-(3,4-dihydrocarbostyril-6-yl)thiazole]
146 to 148 °C | COc1ccc(-c2nc(-c3ccc(O)c(O)c3)cs2)cc1OC.Cl [Example 1, 2-(3,4-dimethoxyphenyl)-4-(3,4-dihydroxyphenyl) thiazole hydrochloride]
248 to 249 °C | COc1ccc(-c2nc(-c3ccc(OS(=O)(=O)O)cc3)cs2)cc1OC [Example 238, 4-(4-hydroxysulfonyloxyphenyl)-2-(3,4-dimethoxyphenyl)thiazole]
152.5 to 153.5 °C | COc1ccc(-c2nc(-c3ccc4c(c3)CCCN4C(=O)c3ccccc3)cs2)cc1OC [Example 144, 2-(3,4-dimethoxyphenyl)-4-(1-benzoyl-1,2,3,4-tetrahydroquinolin-6-yl)thiazole]
≥ 300 °C | NC(=O)c1ccc(-c2nc(-c3ccc4c(c3)CCC(=O)N4)cs2)cc1 [Example 148, 2-(4-carbamoylphenyl)-4-(3,4-dihydrocarbostyril-6-yl)thiazole]
264 to 265 °C | COc1cc(-c2nc(-c3ccc4c(c3)CCC(=O)N4)cs2)ccc1[S+](C)[O-] (centres unmarked) [Example 149, 2-(3-methoxy-4-methylsulfinylphenyl)-4-(3,4-dihydrocarbostyril-6-yl)thiazole]
191 to 192 °C | COc1ccc(-c2nc(-c3ccc4c(c3)CCC(=O)N4)co2)cc1OC [Example 137, 2-(3,4-dimethoxyphenyl)-4-(3,4-dihydrocarbostyril-6-yl) oxazole]
192 to 192.8 °C | CCOc1ccc(-c2nc(-c3cccc(C(=O)O)c3)cs2)cc1OCC [Example 362, 2-(3,4-diethoxyphenyl)-4-(3-carboxyphenyl)thiazole]
